Results from patent publication US11891366B1, “4-methoxy-n′-(2-(5-phenyl-1,3,4-oxadiazol-2-ylthio)acetoxy)benzimidamide as an antimicrobial compound” (KING FAISAL UNIVERSITY, priority 2023, dated 2024).

Legend:
Type in all cases: cell-based
[1] = system: Chrysosporium keratinophilum; experiment: Agar plate disc-diffusion, antifungal activity (inhibition zone); settings: Sabouraud's dextrose agar, 37° C., 72 hours
Description: (§1) The agar plate disc-diffusion method was applied. […] The discs were then placed onto the surface of agar plates (nutrient agar for bacteria and Sabouraud's dextrose agar for fungi) seeded with the test organism. Each plate contained 15 mL of the agar medium, previously seeded with 0.2 mL of the broth culture of each organism pregrown for 18 hours. The plates were incubated at 37° C. for 48 hours, and 72 hours for fungi. The inhibition zones were measured in millimeters (mm). Discs impregnated with DMSO were used as a control, and its inhibition zone was subtracted from the tested compound actual inhibition zone.

Aspergillus flavus = experiment: as above; settings: Sabouraud's dextrose agar, 37° C., 72 hours
Description: as §1

Bacillus Cereus = experiment: Agar plate disc-diffusion, antibacterial activity (inhibition zone); settings: nutrient agar, 37° C., 48 hours
Description: The agar plate disc-diffusion method was applied. Sterilized filter papers (6 mm in diameter) were wetted with 10 μL of a solution 4-methoxy-N′-(2-(5-phenyl-1,3,4-oxadiazol-2-ylthio)acetoxy)benzimidamide (3) to be tested, containing 10 mg/mL in DMSO, and the discs were allowed to air dry. The discs were then placed onto the surface of agar plates (nutrient agar for bacteria and Sabouraud's dextrose agar for fungi) seeded with the test organism. Each plate contained 15 mL of the agar medium, previously seeded with 0.2 mL of the broth culture of each organism pregrown for 18 hours. The plates were incubated at 37° C. for 48 hours, and 72 hours for fungi. The inhibition zones were measured in millimeters (mm). Discs impregnated with DMSO were used as a control, and its inhibition zone was subtracted from the tested compound actual inhibition zone.

Staphylococcus aureus = experiment: as above; settings: nutrient agar, 37° C., 48 hours
Description: as §1

Escherichia coli = experiment: as above; settings: nutrient agar, 37° C., 48 hours
Description: as §1

Pseudomonas aeruginosa = experiment: as above; settings: nutrient agar, 37° C., 48 hours
Description: as §1

[2] = A = concentration of comp. = 10,000 μL
[3] = B = concentration of comp. = 30,000 μL
[4] = C = concentration of comp. = 50,000 μL

Row | SMILES | inhibition zone [1, 2] | inhibition zone [1, 3] | inhibition zone [1, 4] | inhibition zone (Aspergillus flavus; [2]) | inhibition zone (Aspergillus flavus; [3]) | inhibition zone (Aspergillus flavus; [4]) | inhibition zone (Bacillus Cereus; [2]) | inhibition zone (Bacillus Cereus; [3]) | inhibition zone (Bacillus Cereus; [4]) | inhibition zone (Staphylococcus aureus; [2]) | inhibition zone (Staphylococcus aureus; [3]) | inhibition zone (Staphylococcus aureus; [4]) | inhibition zone (Escherichia coli; [2]) | inhibition zone (Escherichia coli; [3]) | inhibition zone (Escherichia coli; [4]) | inhibition zone (Pseudomonas aeruginosa; [2]) | inhibition zone (Pseudomonas aeruginosa; [3]) | inhibition zone (Pseudomonas aeruginosa; [4])
1 | COc1ccc(/C(N)=N/OC(=O)CSc2nnc(-c3ccccc3)o2)cc1 [Compound 3, 4-methoxy-N′-(2-(5-phenyl-1,3,4-oxadiazol-2-ylthio)acetoxy)benzimidamide] | 26 mm | 28 mm | 41 mm | 21 mm | 25 mm | 38 mm | 27 mm | 29 mm | 41 mm | 22 mm | 30 mm | 45 mm | 26 mm | 34 mm | 49 mm | 23 mm | 28 mm | 41 mm
2 | O=C(O)c1cn(C2CC2)c2cc(N3CCNCC3)c(F)cc2c1=O [Cip., ciprofloxacin] | 29 mm | 30 mm | 53 mm | 29 mm | 30 mm | 42 mm | 29 mm | 30 mm | 42 mm | 43 mm | 44 mm | 53 mm | 30 mm | 39 mm | 60 mm | 29 mm | 30 mm | 53 mm
